Experiments:
[1] = Spectroscopic absorbance properties; assay type: physicochemical
From the text: (§1) The absorption bands of each photosensitiser are relatively insensitive to solvent changes with solutions in water/Cremophor resulting in a further bathochromic shift of ˜10 nm (Table 1). Excitation of chloroform solutions of the 2a and 4a at 635 nm gave a fluorescence band at 672 and 673 nm respectively (FIG. 2, Table 2). […] The reduction in fluorescence quantum yield in the series would imply more efficient population of the triplet excited state which would benefit singlet oxygen production. The ability of 2 and 4 to produce singlet oxygen would be a prerequisite to them being potential PDT agents.

[2] = Fluorescence emission and fluorescence quantum yield; assay type: physicochemical
From the text: as §1

[3] = system: HeLa cells; test: Fluorescence microscopy efflux study in HeLa cells; assay type: cell-based; settings: after 3 hrs incubation with 10^−5 M
Procedure: Cells were seeded at a density of 30,000 cells/well in chamber slides and allowed to adhere for 24 hr. A compound of the present invention (10^−5 M) was then added to each chamber and incubated at 37° C. in the dark for 3 hrs. The same procedure was used as for the uptake studies, but for the efflux studies, the cells were treated with fixative solution at specified times after removal of the drug, for example, 5 min, 15 min, 30 min, 1 hr, 2 hr, 3 hr, 6 hr and 24 hr. The slides were then viewed using an Axio Zeiss fluorescent microscope. The cells were examined at the different time points using two different filters. The rhodamine filter was used to visualise the compound of the present invention. […]
LabWorks (Bioimaging Systems) was used to calculate the average fluorescence intensity per cell for each of the different time points used in the uptake and efflux studies for the compounds of the present invention. […] The DAPI filter was used to accurately count the number of cells in each field of view and the rhodamine filter was used to quantify the fluorescence of the compounds of the present invention.
Using the assay method set out above under the heading “Fluorescence Microscopy”, the efflux of 2a was examined from Hela cells and the data are illustrated in FIG. 7. […]

[4] = system: HeLa cells; test: Fluorescence microscopy cellular localisation (DAPI dual staining); assay type: cell-based; settings: 10^−5 M, DAPI nuclear stain
Procedure: Cells were seeded at a density of 30,000 cells/well in chamber slides and allowed to adhere for 24 hr. 2a (10^−5 M) was then added to each chamber and incubated at 37° C. in the dark for either 1 hr or 3 hrs at 37° C.—a one hour incubation was used for FIGS. 4 and 5. The medium was removed and the cells were washed 4 times with drug-free (2a free) medium. The cells were then fixed with 3.7% (v/v) formaldehyde for 15 min at 37° C. The fixative solution was removed and the cells were washed twice with sterile PBS. DAPI (4′,6-diamidino-2-phenylindole) nuclear stain (1/1000) was then incubated with the cells for 10 min at 37° C., following which the cells were washed twice with PBS. Cells were then mounted in Vectashield (Trade Mark) mounting medium.
The cells were viewed using an Axio Zeiss fluorescent microscope. The cells were examined at the different time points using two different filters. The rhodamine filter, which is specific for the wavelength region in which 2a fluoresces, was used to visualise 2a. The DAPI filter was employed to examine the nuclei of the cells.
Cancer cellular uptake of a photosensitiser is a prerequisite for it to act as a PDT agent. Delivery of our proposed PDT agents required formulation of the sensitisers in order to impart water solubility. […]

[5] = system: HeLa cells; test: F-actin staining fluorescence microscopy of treated HeLa cells; assay type: cell-based
Procedure: FIG. 15 illustrates a control experiment which is a fluorescence microscope image of F-actin stained HeLa cells (with rhodamine phalloidine, red colour) 24 hours after treatment with Compound 2a and no exposure to light (0 min light dose). FIG. 15 illustrates such F-Actin stained cells are live.
FIG. 16 confirms cell death following treatment with Compound 2a and 30 minute 500 W light dose, using fluorescence microscopy. More specifically, FIG. 16 is a fluorescence microscope image of F-actin stained HeLa cells (with rhodamine phalloidine, red colour) 24 hours after treatment with Compound 2a and 30 minute light dose.

[6] = Water/Cremophor (100:1), room temperature

fwhm (full width at half maximum) ([1]; CHCl3, room temperature): 49 nm | ε (molar extinction coefficient) ([1]; CHCl3, room temperature): 79,000 M^−1cm^−1 | λmax (absorbance) ([1]; CHCl3, room temperature): 650 nm | fwhm (full width at half maximum) [1, 6]: 53 nm | λmax (absorbance) [1, 6]: 658 nm | λ em (fluorescence band) ([2]; CHCl3, room temperature, excitation at 635 nm): 672 nm | λ em (fluorescence band) [2, 6]: 683 nm | Φf (fluorescence quantum yield) ([2]; relative to magnesium tetra-tert-butylphthalocyanine in CHCl3, room temperature): 0.34
Compound: F[B-]1(F)n2c(-c3ccccc3)cc(-c3ccccc3)c2N=C2C(c3ccccc3)=CC(c3ccccc3)=[N+]21 [Compound 2a]
time to complete efflux [3]: 1000 min | cellular localisation [4]: primarily at the endoplasmic reticulum and not in the nucleus | cell state by F-actin staining ([5]; 24 hours after treatment and 30 minute 500 W light dose): cell death | cell state by F-actin staining ([5]; 24 hours after treatment, no exposure to light): live

— US7220732B2, “Compounds useful as photodynamic therapeutic agents” (priority 2002, dated 2007)
